Results: patent publication US20070259923A1, “MGluR5 modulators IV” (AstraZeneca AB, priority 2006, published 2007)
pIC50: −log10 of the molar value.

Tests used:
human mGluR5d = target: T1, human mGluR5d (Homo sapiens, UniProt P41594); experiment: FLIPR assay, mGluR5 antagonism (intracellular calcium mobilization); assay type: cell-based; settings: cells expressing human mGluR5d; read-out: FLIPR hmGluR5d
T1 construct: expressed in transfected cells; the IP3 assay names GHEK cells stably expressing human mGluR5d
T1 sequence (P41594 21-942 isoform P41594-3 limits assumed): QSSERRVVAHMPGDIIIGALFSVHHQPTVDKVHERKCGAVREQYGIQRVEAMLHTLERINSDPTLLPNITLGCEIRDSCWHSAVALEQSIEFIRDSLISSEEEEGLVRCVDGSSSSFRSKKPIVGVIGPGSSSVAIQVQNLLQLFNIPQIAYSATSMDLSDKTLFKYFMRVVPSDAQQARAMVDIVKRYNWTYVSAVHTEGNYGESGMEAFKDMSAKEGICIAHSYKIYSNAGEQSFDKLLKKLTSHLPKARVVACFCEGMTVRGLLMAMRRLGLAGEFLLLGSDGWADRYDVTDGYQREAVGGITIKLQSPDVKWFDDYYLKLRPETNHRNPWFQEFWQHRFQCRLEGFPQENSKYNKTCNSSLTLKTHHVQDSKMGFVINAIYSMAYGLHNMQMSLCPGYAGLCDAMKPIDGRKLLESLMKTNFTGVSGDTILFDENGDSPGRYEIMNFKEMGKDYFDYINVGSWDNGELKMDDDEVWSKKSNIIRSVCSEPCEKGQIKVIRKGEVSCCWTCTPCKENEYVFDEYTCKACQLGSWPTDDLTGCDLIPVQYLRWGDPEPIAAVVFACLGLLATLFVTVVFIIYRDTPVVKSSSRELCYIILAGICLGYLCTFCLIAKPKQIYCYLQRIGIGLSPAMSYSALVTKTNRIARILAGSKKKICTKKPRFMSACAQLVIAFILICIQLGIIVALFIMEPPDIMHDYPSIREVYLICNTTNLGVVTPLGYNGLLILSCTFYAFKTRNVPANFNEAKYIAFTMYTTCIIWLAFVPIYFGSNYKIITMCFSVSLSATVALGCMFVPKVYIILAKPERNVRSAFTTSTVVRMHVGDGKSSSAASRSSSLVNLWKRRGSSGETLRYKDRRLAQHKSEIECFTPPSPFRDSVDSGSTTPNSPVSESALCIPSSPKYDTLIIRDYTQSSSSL
From the text: The properties of the compounds of the invention can be analyzed using standard assays for pharmacological activity. Examples of glutamate receptor assays are well known in the art as described in for example Aramori et al., Neuron 8:757 (1992), Tanabe et al., Neuron 8:169 (1992), Miller et al., J. Neuroscience 15: 6103 (1995), Balazs, et al., J. Neurochemistry 69:151 (1997). The methodology described in these publications is incorporated herein by reference. Conveniently, the compounds of the invention can be studied by means of an assay (FLIPR) that measures the mobilization of intracellular calcium, [Ca^2+]i in cells expressing mGluR5 or another assay (IP3) that measures inositol phosphate turnover.
Cells expressing human mGluR5d as described in WO97/05252 are seeded at a density of 100,000 cells per well on collagen coated clear bottom 96-well plates with black sides and experiments are done 24 h following seeding. […] The fluorescence signal is sampled 50 times at 1 second intervals followed by 3 samples at 5 second intervals immediately after each of the two additions. Responses are measured as the difference between the peak height of the response to agonist, less the background fluorescence within the sample period. […]

[1] = Determination of brain to plasma ratio in rat; assay type: in vivo; settings: brain and plasma, female Sprague Dawley rats, read-out: Brain/Plasma Ratio of compound in Rat
Description: Brain to plasma ratios are estimated in female Sprague Dawley rats. The compound is dissolved in water or another appropriate vehicle. For determination of brain to plasma ratio the compound is administrated as a subcutaneous, or an intravenous bolus injection, or an intravenous infusion, or an oral administration. At a predetermined time point after the administration a blood sample is taken with cardiac puncture. The rat is terminated by cutting the heart open, and the brain is immediately retained. The blood samples are collected in heparinized tubes and centrifuged within 30 minutes, in order to separate the plasma from the blood cells. The plasma is transferred to 96-well plates and stored at −20° C. until analysis. The brains are divided in half, and each half is placed in a pre-tarred tube and stored at −20° C. until analysis. Prior to the analysis, the brain samples are thawed and 3 ml/g brain tissue of distilled water is added to the tubes. The brain samples are sonicated in an ice bath until the samples are homogenized. Both brain and plasma samples are precipitated with acetonitrile. After centrifugation, the supernatant is diluted with 0.2% formic acid. […] After reconstitution of the residuals the samples are ready for injection onto the HPLC column.

SMILES	pIC50 (human mGluR5d)	Kp [1]
Cc1cc(-c2nnc(N3CCC[C@@H]3c3cc(-c4cccc(C#N)c4)on3)n2C)ccn1 [Example 12.4, 3-(3-{(R)-1-[4-Methyl-5-(2-methyl-pyridin-4-yl)-4H-[1,2,4]triazol-3-yl]-pyrrolidin-2-yl}-isoxazol-5-yl)-benzonitrile]	7.33	0.06
Cn1c(-c2cccnc2)nnc1N1CCC[C@@H]1c1cc(-c2cccc(C#N)c2)on1 [Example 12.6, 3-{3-[(R)-1-(4-Methyl-5-pyridin-3-yl-4H-[1,2,4]triazol-3-yl)-pyrrolidin-2-yl]-isoxazol-5-yl}-benzonitrile]	7.07	0.05
